Reference: article PMC8470279, “Biosynthesis of the Novel Endogenous 15-Lipoxygenase Metabolites N-13-Hydroxy-octodecadienoyl-ethanolamine and 13-Hydroxy-octodecadienoyl-glycerol by Human Neutrophils and Eosinophils” (Cells, 2021)
Read-outs that look alike come from different tables or passages of the source.

What was measured:
[1] = biological target: human recombinant CB1 receptor (Homo sapiens, UniProt P21554); test: CB1 receptor binding assay; conditions: mean ± SD; for CB1 Receptor Max Tested (% Displacement): 10 µM
Chain of human recombinant CB1 receptor (P21554 whole entry): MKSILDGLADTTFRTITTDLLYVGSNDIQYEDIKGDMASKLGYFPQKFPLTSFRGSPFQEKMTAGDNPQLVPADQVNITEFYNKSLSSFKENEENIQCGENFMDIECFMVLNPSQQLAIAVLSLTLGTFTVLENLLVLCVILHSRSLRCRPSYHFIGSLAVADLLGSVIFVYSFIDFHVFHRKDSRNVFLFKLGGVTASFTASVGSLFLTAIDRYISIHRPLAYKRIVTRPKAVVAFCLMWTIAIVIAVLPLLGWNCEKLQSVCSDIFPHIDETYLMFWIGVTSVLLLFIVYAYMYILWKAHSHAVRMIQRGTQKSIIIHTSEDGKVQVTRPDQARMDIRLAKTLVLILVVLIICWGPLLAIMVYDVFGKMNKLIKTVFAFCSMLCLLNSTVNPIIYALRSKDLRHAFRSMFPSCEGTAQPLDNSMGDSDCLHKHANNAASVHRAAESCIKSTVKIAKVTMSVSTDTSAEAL
Experimental: (§1) The analysis of CB1 and CB2 receptor binding was performed exactly as described in [21].

[2] = biological target: human recombinant CB2 receptor (Homo sapiens, UniProt P34972); test: CB2 receptor binding assay; conditions: mean ± SD; for CB2 Receptor Max Tested (% Displacement): 10 µM
Chain of human recombinant CB2 receptor (P34972 whole entry): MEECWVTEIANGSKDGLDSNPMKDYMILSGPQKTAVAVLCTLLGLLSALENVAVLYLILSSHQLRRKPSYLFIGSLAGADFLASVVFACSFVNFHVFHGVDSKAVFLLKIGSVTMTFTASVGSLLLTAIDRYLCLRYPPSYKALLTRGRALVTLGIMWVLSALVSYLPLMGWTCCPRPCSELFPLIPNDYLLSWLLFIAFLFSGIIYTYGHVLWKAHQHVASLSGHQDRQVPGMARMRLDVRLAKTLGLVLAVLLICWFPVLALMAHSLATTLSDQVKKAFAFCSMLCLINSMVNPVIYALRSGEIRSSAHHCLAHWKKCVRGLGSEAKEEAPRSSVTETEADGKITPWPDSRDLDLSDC
Experimental: as §1

[3] = biological target: T1, human recombinant TRPV1 (Homo sapiens, UniProt Q8NER1); test: TRPV1-mediated intracellular calcium elevation; format: cell-based; conditions: mean ± SD; for IC50: assayed using 100 nM capsaicin, read-out: Desensibilization (IC50); for Emax: read-out: Efficacy (% Max Response)
T1 construct: expressed in transfected cells
T1 sequence (Q8NER1 whole entry): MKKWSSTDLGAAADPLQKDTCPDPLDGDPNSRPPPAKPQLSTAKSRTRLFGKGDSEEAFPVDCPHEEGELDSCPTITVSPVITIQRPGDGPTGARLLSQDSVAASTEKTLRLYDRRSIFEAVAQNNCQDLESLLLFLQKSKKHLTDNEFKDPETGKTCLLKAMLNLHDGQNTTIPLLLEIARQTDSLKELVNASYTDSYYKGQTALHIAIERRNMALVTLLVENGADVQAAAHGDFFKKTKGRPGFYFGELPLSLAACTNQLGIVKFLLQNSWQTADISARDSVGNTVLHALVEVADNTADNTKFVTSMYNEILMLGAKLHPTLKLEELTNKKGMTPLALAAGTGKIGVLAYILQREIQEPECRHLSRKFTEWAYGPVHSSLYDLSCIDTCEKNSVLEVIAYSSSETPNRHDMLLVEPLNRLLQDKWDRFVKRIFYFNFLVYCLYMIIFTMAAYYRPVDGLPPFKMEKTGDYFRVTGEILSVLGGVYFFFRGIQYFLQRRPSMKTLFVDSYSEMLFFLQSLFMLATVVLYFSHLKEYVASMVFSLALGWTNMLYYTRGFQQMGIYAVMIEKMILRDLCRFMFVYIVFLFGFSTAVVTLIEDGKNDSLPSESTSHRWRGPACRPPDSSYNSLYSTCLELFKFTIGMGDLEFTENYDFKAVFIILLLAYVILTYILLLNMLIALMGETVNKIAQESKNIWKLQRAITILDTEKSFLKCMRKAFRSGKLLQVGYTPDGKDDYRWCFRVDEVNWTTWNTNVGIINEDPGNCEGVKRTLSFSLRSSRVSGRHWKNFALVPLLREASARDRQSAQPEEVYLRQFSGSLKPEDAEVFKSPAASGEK
Excerpt: (§2) These assays we preformed exactly as described in [21].

[4] = biological target: T2, human recombinant 15-LO-1 (Homo sapiens, UniProt P16050); test: Metabolism of substrates by recombinant 15-LO-1, LC-MS/MS; format: biochemical; conditions: 10 µM 1-LG, 5 min, 37 °C
T2 sequence (P16050 1-662): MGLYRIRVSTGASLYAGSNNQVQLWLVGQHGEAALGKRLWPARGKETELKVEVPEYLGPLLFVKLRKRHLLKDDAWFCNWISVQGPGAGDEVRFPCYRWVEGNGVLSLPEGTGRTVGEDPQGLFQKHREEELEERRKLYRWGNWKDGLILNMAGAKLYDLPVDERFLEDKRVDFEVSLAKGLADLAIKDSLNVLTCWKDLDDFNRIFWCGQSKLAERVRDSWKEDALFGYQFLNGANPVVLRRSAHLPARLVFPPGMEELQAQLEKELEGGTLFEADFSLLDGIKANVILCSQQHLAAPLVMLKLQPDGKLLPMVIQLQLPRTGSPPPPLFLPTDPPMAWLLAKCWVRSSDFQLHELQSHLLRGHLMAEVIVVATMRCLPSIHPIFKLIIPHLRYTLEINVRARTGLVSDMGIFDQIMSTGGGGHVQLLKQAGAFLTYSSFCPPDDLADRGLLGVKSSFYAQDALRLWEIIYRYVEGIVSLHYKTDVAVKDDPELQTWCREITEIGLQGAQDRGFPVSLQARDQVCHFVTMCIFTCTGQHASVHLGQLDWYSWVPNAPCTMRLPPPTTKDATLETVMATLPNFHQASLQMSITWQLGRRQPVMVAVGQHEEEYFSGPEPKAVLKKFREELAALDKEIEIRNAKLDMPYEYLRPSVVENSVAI
Experimental: (§3) Recombinant human 15-LO-1 and 15-LO-2 enzymes were added to HEPES 25 mM + 0.01% Triton (14 μg/mL for 15-LO-1, 56 μg/mL for 15-LO-2). A total of 10 μM of the fatty acids were added to the buffer for 5 min (15-LO-1) or 15 min (15-LO-2), at 37 °C. The final volume of the reaction mix was 100 µL. After the incubation, 50 µL of NaBH4 1M was added to the reaction, for 5 min at 37 °C. The reactions were stopped by adding 0.5 mL of cold (−20 °C) methanol +0.01% acetic acid and kept at −30 °C until further processing.
(§4) Figure 3 Metabolism of 1-LG, LA and LEA by human recombinant 15-LO-1 and 15-LO-2. Human recombinant 15-LO-1 (A–D) or 15-LO-2 (E–H) were incubated at 37 °C in HEPES 25 mM containing 0.01% triton. A total of 10 μM of LA (A,D,E,H); 1-LG (B,D,F,H) or LEA (D,H) were added for 5 min (15-LO-1) or 15 min (15-LO-2). NaBH4 was then added for 5 min and incubations were stopped by the addition of 0.5 mL of cold (−20 °C) MeOH containing 0.01% acetic acid and the internal standards. Samples then were processed for LC-MS/MS analyses as described in methods. Results are the mean (±SEM) of 3 independent experiments.

[5] = biological target: T3, human recombinant 15-LO-2 (Homo sapiens, UniProt O15296); test: Metabolism of substrates by recombinant 15-LO-2, LC-MS/MS; format: biochemical; conditions: 10 µM 1-LG, 15 min, 37 °C
T3 sequence (O15296 1-676): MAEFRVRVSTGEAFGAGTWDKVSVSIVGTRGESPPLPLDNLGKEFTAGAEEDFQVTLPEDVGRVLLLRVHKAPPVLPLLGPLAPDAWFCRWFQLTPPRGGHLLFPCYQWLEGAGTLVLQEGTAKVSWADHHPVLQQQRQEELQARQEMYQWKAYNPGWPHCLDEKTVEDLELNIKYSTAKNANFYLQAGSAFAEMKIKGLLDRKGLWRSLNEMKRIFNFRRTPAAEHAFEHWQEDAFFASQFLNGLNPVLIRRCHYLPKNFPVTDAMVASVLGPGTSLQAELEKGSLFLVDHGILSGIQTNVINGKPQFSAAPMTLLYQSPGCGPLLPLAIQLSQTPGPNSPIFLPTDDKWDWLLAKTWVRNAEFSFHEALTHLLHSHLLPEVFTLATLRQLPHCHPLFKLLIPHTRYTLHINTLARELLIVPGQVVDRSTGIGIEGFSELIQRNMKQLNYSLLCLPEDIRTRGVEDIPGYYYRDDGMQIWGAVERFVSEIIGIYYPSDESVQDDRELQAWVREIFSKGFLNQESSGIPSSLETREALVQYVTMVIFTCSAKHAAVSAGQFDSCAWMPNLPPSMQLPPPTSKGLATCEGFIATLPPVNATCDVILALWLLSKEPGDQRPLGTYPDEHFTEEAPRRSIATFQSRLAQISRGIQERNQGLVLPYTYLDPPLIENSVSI
Experimental: as §3, §4

[6] = tested on: human eosinophils; test: Biosynthesis of 15-LO metabolites by human eosinophils; conditions: for Delay before metabolism into 15-lipoxygenase counterpart / Time of maximal levels of 15-lipoxygenase metabolite: 3 µM substrate; for Time of maximal levels of 15-lipoxygenase metabolite: longest time point studied; for Times more metabolite in eosinophils than in neutrophils: same donors, combination of LA, 1-LG and LEA at 3 µM each, 5 min
[7] = tested on: human neutrophils; test: Biosynthesis of 15-LO metabolites by human neutrophils
[8] = biological target: T4, PPAR-α (Homo sapiens, UniProt Q07869); test: PPAR-α functional (transcriptional) activity assay kit; format: cell-based; conditions: 30 µM, overnight
T4 construct: purchased
T4 sequence (Q07869 1-468): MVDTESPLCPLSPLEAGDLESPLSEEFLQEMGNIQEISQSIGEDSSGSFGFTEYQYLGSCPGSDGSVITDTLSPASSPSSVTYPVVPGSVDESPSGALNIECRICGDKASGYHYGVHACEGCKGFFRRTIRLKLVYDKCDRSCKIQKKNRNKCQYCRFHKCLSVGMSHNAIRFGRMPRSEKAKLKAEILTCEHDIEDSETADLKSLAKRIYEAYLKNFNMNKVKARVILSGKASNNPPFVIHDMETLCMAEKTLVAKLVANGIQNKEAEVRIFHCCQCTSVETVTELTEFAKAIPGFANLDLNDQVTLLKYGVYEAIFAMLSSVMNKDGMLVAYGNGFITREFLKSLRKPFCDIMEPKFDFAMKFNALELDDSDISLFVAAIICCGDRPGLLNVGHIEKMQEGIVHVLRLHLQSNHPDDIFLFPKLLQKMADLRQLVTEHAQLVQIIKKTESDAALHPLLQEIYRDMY
Experimental: as §2
(§5) Figure 10 Impact of 13-HODE and 13-HODE-G on PPAR activity. Cells were incubated with 30 µM 13-HODE, 13-HODE-G, or OEA overnight and PPAR activity was measured using the PPAR assay kits according to the manufacturers’ instructions. Rosiglitazone (10 µM) and GW 590735 (100 nM) were utilized as positive controls for the (A) PPAR-γ and (B) PPAR-α assays, respectively. Data represent the mean (± SEM) of three (PPAR-γ) or five (PPAR-α) experiments, each performed in triplicates. p values were obtained by performing a 2-way ANOVA with a Sidak multiple comparison tests. **** p < 0.0001, *** p < 0.001. ns: p > 0.05.

[9] = tested on: human neutrophils; test: Hydrolysis/stability of added 13-HODE-EA in neutrophil suspensions; format: in vitro ADME; conditions: neutrophils 5 × 10^6 cells/mL
[10] = tested on: human eosinophils; test: Hydrolysis/stability of added 13-HODE-EA in eosinophil suspensions; format: in vitro ADME; conditions: eosinophils 10^6 cells/mL
[11] = biological target: T2, human recombinant 15-LO-1; set-up: method as in PMID 33915294; conditions: previous publication; cited from earlier work
[12] = biological target: T3, human recombinant 15-LO-2; set-up: method as in PMID 33915294; conditions: previous publication; cited from earlier work
[13] = biological target: T5, PPAR-γ (Homo sapiens, UniProt P37231); test: PPAR-γ functional (transcriptional) activity assay kit; format: cell-based; conditions: 30 µM, overnight
T5 construct: purchased
T5 sequence (P37231 1-505): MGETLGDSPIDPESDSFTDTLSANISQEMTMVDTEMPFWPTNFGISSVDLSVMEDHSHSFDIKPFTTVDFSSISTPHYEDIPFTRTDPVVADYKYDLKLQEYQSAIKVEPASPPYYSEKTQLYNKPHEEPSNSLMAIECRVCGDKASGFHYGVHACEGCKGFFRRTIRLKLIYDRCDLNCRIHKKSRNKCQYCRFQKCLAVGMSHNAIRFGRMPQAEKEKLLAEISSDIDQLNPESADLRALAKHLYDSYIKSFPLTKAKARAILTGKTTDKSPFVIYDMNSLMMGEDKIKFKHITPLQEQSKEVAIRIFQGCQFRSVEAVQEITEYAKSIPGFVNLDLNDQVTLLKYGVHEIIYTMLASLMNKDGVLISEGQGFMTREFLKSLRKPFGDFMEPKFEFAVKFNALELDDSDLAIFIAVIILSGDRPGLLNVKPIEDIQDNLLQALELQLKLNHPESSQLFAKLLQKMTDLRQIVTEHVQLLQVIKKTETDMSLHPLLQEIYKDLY
Experimental: as §2, §5

[14] = Detection of 13-HODE-G in human samples by LC-MS/MS; conditions: mean ± SEM, n = 5
[15] = tested on: human neutrophils; test: Inhibition of 13-HODE-G and 13-HODE-EA biosynthesis by 15-LO inhibitors in neutrophils; format: cell-based; conditions: inhibitor 10 µM 5 min, then 3 µM LEA or 1-LG 5 min
Excerpt: Figure 9 Inhibition of 13-HODE-G and 13-HODE-EA biosynthesis by 15-LO inhibitors in human eosinophils and neutrophils. […] Samples then were processed for LC-MS/MS analyses as described in methods. Results are the mean (±SEM) of 4 independent experiments.

[16] = intracellular calcium elevation

SMILES | CB1 Receptor Max Tested (% Displacement) [1] | IC50 [1] [µM] | Ki [1] [µM] | CB2 Receptor Max Tested (% Displacement) [2] | IC50 [2] [µM] | Ki [2] [µM] | IC50 [3] [µM] | Emax [3, 16] [%] | Time of maximal levels of 15-lipoxygenase metabolite [6] [min] | Times more metabolite in eosinophils than in neutrophils [6] | further results
CCCCC/C=C\C/C=C\CCCCCCCC(=O)OCC(O)CO (stereo not shown) [1-LG, 1-linoleoyl-glycerol] | 10µM (95.8 ± 16.4) % | 2.81 ± 0.85 | 0.31 ± 0.15 | 10 µM (28.45 ± 9.4) % | > 10 | > 10 | 2.7 ± 0.3 | 46.5 ± 0.9 | 15 | – | EC50 ([3]; intracellular calcium elevation, read-out: Potency (EC50)): 230 ± 20 nM; Efficacy of the reaction (1-LG to 13-HODE-G) [4]: 23%; Efficacy of the reaction (1-LG to 13-HODE-G) [5]: 40%; Delay before metabolism into 15-lipoxygenase counterpart [6]: ~ 1 min; Time to biosynthesis of 13-HODE derivatives ([7]; 3 µM substrate): 10 to 30 s
CCCCC[C@H](O)/C=C/C=C\CCCCCCCC(=O)O [13-HODE, 13(S)-hydroxy-octodecadienoic acid] | 10 µM (7.56 ± 2.3) % | > 10 | > 10 | 10 µM (38.34 ± 5.4) % | > 10 | > 10 | > 50 | < 10 | – | ~ 30 times | Stimulation of PPAR-α transcriptional activity [8]: robust effect
CCCCC[C@H](O)/C=C/C=C\CCCCCCCC(=O)NCCO [13-HODE-EA, N-13-hydroxy-octodecadienoyl-ethanolamine] | – | – | – | – | – | – | – | – | – | ~ 500 times | Remaining after 15 min [9]: 60%; Remaining after 15 min [10]: 90%; 13-HODE-EA/13-HODE ratio [11]: ~ 3.5; 13-HODE-EA/13-HODE ratio [12]: ~ 3
CCCCC[C@H](O)/C=C/C=C\CCCCCCCC(=O)OCC(O)CO (stereo partly shown) [13-HODE-G, 13-hydroxy-octodecadienoyl-glycerol] | 10 µM (18.90 ± 6.1) % | > 10 | > 10 | 10 µM (33.58 ± 21.3) % | > 10 | > 10 | > 50 | < 10 | – | ~ 60 times | Stimulation of PPAR-α transcriptional activity [8]: did not stimulate; Stimulation of PPAR-γ transcriptional activity [13]: did not stimulate; Level in human epidermis samples [14]: 21.9 ± 6.2 fmol/mg tissue
CCCCC/C=C\C/C=C\CCCCCCCC(=O)O [LA, Linoleic acid] | – | – | – | – | – | – | – | – | 15 | – | Time of peak 13-HODE biosynthesis ([7]; 3 µM LA): 10 s; Time to biosynthesis of 13-HODE derivatives ([7]; 3 µM substrate): 10 to 30 s
CCCCC/C=C\C/C=C\CCCCCCCC(=O)NCCO [LEA, N-linoleoyl-ethanolamine] | – | – | – | – | – | – | – | – | 15 | – | Delay before metabolism into 15-lipoxygenase counterpart [6]: ~ 1 min; Ratio 13-HODE/13-HODE-EA [7]: 2.67 ± 0.590; Time to biosynthesis of 13-HODE derivatives [7]: 10 to 30 s
CC(Cc1ccc(O)c(O)c1)C(C)Cc1ccc(O)c(O)c1 (stereo not shown) [NDGA] | – | – | – | – | – | – | – | – | – | – | Inhibition of biosynthesis of the investigated 15-LO metabolites [15]: did not inhibit
